Data on 16 compounds can be found in ChEMBL document CHEMBL4043219, “Development of sulfonamides incorporating phenylacrylamido functionalities as carbonic anhydrase isoforms I, II, IX and XII inhibitors” (Bioorg Med Chem, 2017).

Sequence of Carbonic anhydrase 12 (O43570 whole entry): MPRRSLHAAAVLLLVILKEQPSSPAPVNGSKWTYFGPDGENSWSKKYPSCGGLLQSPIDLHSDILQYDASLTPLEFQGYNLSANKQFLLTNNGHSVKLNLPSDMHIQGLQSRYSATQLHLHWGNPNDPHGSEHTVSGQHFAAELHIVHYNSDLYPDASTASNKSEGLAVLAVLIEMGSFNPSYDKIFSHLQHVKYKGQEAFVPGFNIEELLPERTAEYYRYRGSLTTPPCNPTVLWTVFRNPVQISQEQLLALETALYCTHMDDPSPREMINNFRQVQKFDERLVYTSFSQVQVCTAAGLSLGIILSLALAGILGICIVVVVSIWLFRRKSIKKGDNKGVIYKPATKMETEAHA

The first assay has as its target Carbonic anhydrase 9 (Homo sapiens, UniProt Q16790).
Description: Inhibition of human recombinant carbonic anhydrase-9 preincubated for 10 mins by stopped-flow CO2 hydration assay
Turning to `CC(C)Oc1ccc(/C=C/C(=O)Nc2ccc(S(N)(=O)=O)cc2)cc1`, the Ki (as a rule, the dissociation constant of the complex between target and ligand, obtained from inhibition or displacement) turned out to be 20.3 nM.

In turn, `COc1ccc(/C=C/C(=O)Nc2ccc(S(N)(=O)=O)cc2)cc1OC` had a Ki of 9.3 nM.

For the compound `COc1cc(/C=C/C(=O)Nc2ccc(S(N)(=O)=O)cc2)cc(OC)c1OC`, the Ki came out at 126 nM.

Regarding `COc1ccc(/C=C/C(=O)Nc2ccc(S(N)(=O)=O)cc2)c(OC)c1`, the Ki worked out at 9.6 nM.

Take `NS(=O)(=O)c1ccc(NC(=O)/C=C/c2ccc(F)cc2)cc1`: the Ki was found to be 2.4 nM.

`NS(=O)(=O)c1ccc(NC(=O)/C=C/c2ccc(C(F)(F)F)cc2)cc1` came in with a Ki of 2.4 nM.

The compound `COc1ccc(/C=C/C(=O)Nc2ccc(S(N)(=O)=O)cc2)c(F)c1` returned a Ki of 11.2 nM.

`NS(=O)(=O)c1ccc(NC(=O)/C=C/c2cccc(F)c2)cc1`: the Ki was 2 nM.

Consider `NS(=O)(=O)c1ccc(NC(=O)/C=C/c2cc(Cl)cc(Cl)c2)cc1`, for which the Ki is 229 nM.

Compound `COc1ccc(/C=C/C(=O)Nc2ccc(S(N)(=O)=O)cc2)cc1` yielded a Ki of 5.3 nM.

With `NS(=O)(=O)c1ccc(NC(=O)/C=C/c2ccc(F)c(F)c2)cc1`, the Ki came out at 151 nM.

`NS(=O)(=O)c1ccc(NC(=O)/C=C/c2ccccc2OC(F)F)cc1` returned a Ki of 1.8 nM.

As for `NS(=O)(=O)c1ccc(NC(=O)/C=C/c2cccc(C(F)(F)F)c2)cc1`, the affinity corresponds to a Ki of 11.6 nM.

Consider `NS(=O)(=O)c1ccc(NC(=O)/C=C/c2ccc(Cl)cc2)cc1`, for which the Ki is 12.6 nM.

`NS(=O)(=O)c1ccc(NC(=O)/C=C/c2ccc(OC(F)(F)F)cc2)cc1` returned a Ki of 4.9 nM.

In turn, `N#Cc1ccc(/C=C/C(=O)Nc2ccc(S(N)(=O)=O)cc2)cc1` had a Ki of 8 nM.

A further assay concerns the target Carbonic anhydrase 12 (Homo sapiens, UniProt O43570). The assay can be described thus: Inhibition of human recombinant carbonic anhydrase-12 preincubated for 10 mins by stopped-flow CO2 hydration assay.
For `NS(=O)(=O)c1ccc(NC(=O)/C=C/c2ccccc2OC(F)F)cc1`, the Ki turned out to be 4.6 nM.
